Assays:
Nitric oxide synthase 1 = Nitric oxide synthase 1 (Rattus norvegicus, UniProt P29476); assay: Compound was tested in vitro for inhibitory activity against nNOS (constitutive isoform found in neurons)
[1] = target: T1, Nitric oxide synthase, inducible (Mus musculus, UniProt P29477); assay: Compound was tested in vitro for inhibitory activity against inducible nitric oxide synthase
T1 sequence (P29477 whole entry): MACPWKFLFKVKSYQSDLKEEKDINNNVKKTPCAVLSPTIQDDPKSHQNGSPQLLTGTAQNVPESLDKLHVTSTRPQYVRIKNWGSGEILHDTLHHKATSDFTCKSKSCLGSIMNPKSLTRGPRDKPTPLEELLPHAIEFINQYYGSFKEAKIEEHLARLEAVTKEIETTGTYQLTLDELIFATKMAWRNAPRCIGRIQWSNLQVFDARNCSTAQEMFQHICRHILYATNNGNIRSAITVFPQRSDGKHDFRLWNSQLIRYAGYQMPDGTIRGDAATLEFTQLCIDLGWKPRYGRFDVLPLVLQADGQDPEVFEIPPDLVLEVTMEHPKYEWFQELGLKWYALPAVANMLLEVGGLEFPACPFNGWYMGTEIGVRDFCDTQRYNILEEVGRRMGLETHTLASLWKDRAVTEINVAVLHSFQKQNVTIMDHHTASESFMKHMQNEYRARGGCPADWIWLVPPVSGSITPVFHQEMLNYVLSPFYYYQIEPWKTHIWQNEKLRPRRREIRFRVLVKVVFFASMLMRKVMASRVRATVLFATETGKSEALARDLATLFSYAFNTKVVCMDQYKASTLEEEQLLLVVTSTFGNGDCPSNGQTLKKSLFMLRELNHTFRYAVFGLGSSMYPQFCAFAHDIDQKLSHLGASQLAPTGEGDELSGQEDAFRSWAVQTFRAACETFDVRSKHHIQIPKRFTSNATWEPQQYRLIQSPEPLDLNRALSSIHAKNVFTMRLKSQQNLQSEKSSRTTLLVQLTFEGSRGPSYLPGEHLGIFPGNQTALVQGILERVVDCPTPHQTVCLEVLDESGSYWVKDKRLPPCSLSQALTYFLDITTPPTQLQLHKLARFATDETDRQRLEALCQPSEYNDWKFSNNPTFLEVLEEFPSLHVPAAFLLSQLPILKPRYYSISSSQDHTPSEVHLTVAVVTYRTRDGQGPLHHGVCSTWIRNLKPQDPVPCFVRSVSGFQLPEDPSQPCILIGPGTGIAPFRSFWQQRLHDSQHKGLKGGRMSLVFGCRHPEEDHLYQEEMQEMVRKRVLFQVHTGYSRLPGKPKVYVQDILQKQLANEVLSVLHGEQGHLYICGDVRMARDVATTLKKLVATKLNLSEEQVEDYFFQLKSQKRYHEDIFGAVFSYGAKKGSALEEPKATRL

Nitric oxide synthase 1, sequence (P29476 whole entry, canonical isoform): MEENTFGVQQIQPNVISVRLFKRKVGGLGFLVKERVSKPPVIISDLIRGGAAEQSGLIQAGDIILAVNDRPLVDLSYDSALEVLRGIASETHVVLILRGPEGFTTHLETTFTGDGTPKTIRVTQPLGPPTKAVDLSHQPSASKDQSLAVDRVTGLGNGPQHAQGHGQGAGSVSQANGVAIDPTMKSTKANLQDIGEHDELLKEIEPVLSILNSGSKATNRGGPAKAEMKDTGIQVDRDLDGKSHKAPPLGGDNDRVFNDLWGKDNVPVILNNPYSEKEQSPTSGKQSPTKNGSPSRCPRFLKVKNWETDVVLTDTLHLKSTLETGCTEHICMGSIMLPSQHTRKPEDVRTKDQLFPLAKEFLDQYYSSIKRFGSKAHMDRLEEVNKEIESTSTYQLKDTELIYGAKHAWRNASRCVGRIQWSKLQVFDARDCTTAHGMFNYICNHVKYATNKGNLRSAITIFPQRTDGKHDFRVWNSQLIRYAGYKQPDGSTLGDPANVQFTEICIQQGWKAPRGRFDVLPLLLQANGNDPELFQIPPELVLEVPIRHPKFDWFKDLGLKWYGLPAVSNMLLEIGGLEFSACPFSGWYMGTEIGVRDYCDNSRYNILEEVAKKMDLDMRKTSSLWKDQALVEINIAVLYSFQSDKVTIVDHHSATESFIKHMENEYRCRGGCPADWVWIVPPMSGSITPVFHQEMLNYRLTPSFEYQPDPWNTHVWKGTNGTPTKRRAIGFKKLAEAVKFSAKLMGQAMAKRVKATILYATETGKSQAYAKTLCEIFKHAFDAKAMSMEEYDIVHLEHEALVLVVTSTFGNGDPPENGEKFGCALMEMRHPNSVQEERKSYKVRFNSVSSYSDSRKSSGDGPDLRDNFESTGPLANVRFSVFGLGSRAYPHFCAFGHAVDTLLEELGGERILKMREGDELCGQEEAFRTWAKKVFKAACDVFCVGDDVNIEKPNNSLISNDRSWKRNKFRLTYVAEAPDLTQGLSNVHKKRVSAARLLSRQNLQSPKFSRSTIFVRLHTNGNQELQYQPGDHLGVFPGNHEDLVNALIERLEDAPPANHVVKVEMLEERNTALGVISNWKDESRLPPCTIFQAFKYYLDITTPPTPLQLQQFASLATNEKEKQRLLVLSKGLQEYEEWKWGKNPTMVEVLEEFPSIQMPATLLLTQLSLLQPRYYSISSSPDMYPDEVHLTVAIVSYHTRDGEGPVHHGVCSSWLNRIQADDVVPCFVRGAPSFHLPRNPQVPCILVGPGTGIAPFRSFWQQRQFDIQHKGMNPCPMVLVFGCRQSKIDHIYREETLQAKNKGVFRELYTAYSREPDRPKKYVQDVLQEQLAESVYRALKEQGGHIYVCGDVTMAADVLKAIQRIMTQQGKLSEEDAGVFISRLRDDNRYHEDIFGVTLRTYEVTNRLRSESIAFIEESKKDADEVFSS

Row | SMILES | IC50 (Nitric oxide synthase 1) [µM] | IC50 [1] [µM]
1 | N=C(N)NCCCC(N)P(=O)(O)O (stereo not drawn) | > 100 | > 100
2 | N=C(NCCC[C@H](N)C(=O)O)N[N+](=O)[O-] [NITROARGININE] |  | 10
3 | CNC(=N)NCCCC(N)P(=O)(O)O (stereo not drawn) | > 100 | > 100
4 | CNC(=N)NCCCC(N)[PH](=O)O (stereo not drawn) | 100 | > 100
5 | N/C(=N/CCCC(N)P(=O)(O)O)N[N+](=O)[O-] (stereo not drawn) | > 100 | > 100
6 | NC(N)=NCCCC(N)[PH](=O)O (stereo not drawn) | > 100 | > 100
7 | N/C(=N/CCCC(N)[PH](=O)O)N[N+](=O)[O-] (stereo not drawn) | 45 | > 100

From ChEMBL document CHEMBL1129234, “Synthesis of phosphorus-containing amino acid analogs as inhibitors of nitric oxide synthase” (Bioorg Med Chem Lett, 1996)
